Measured values reported in patent US11780893B2, “Kv1.3 blockers” (Zealand Pharma A/S, priority 2019, dated 2023).
Bridge positions count the residues as written; N and C are the ends. Square brackets hold non-standard residues; d marks the D form. Peptide text beside a SMILES is read from it. Nle = CCCC[C@H](N)C(=O)O

Biological target: T1, human Kv1.3 voltage-gated K+ channel (Homo sapiens, UniProt P22001)
T1 construct: host or cells: CHO-DUKX
Assay: cell-based
Settings: inhibition of thallium flux, CHO-DUKX cells with human Kv1.3; read-out: IC50

T1 sequence (P22001 whole entry): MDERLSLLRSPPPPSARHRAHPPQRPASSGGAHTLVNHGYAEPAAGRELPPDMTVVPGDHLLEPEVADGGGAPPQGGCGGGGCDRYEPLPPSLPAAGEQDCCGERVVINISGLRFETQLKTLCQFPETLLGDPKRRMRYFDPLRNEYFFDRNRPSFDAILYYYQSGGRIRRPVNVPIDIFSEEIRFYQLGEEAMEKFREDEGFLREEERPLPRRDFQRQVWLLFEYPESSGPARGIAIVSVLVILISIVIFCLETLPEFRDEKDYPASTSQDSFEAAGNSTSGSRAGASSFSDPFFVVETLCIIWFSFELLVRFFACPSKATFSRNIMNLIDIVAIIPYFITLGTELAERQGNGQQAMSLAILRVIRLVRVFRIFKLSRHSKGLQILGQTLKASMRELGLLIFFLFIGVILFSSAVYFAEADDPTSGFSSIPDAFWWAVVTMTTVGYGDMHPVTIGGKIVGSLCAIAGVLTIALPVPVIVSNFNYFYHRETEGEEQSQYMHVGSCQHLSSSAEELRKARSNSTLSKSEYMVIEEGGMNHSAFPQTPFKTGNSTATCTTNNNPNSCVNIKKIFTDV

| Compound | IC50 [nM] |
| --- | --- |
| CC[C@H](C)[C@@H]1NC(=O)[C@H](C)NC(=O)[C@H](CCCCN)NC(=O)[C@H](CC(C)C)NC(=O)[C@@H]2CSSC[C@@H](C(=O)N[C@@H](Cc3ccc(O)cc3)C(=O)N3CCC[C@H]3C(=O)N[C@@H](CCCNC(=N)N)C(=O)O)NC(=O)[C@H](CCCCN)NC(=O)[C@@H]3CSSC[C@H](NC(=O)[C@H](CCC(=O)O)NC(=O)[C@H](C(C)C)NC(=O)[C@H](CO)NC(=O)[C@H](C)NC(=O)[C@H](CO)NC(=O)[C@@H](NC(=O)[C@H](CCCNC(=N)N)NC(=O)[C@H](CCSC)NC(=O)[C@H](CC(=O)O)NC(=O)[C@H](CCSC)NC(=O)[C@@H](N)CC(N)=O)CSSC[C@H](NC(=O)[C@H](CCCCN)NC(=O)CNC(=O)[C@H](Cc4ccccc4)NC(=O)CNC(=O)[C@H](CCCNC(=N)N)NC(=O)CNC1=O)C(=O)N[C@@H](CCSC)C(=O)N[C@@H](CC(N)=O)C(=O)N[C@@H](CCCCN)C(=O)N[C@@H](CCCCN)C(=O)N3)C(=O)N[C@@H](CCCCN)C(=O)N[C@@H](CCC(N)=O)C(=O)N[C@@H](CCCCN)C(=O)N2 [Compound 4] (H-NMDMRCSASVECKQKCLKAIGRGFGKCMNKKCKCYPR-OH; disulfide 6-27, 12-32, 16-34) | 0.29 |
| CC[C@H](C)[C@@H]1NC(=O)[C@H](C)NC(=O)[C@H](CCCCN)NC(=O)[C@H](CC(C)C)NC(=O)[C@@H]2CSSC[C@@H](C(=O)N[C@@H](Cc3ccc(O)cc3)C(=O)N3CCC[C@H]3C(=O)N[C@@H](CCCNC(=N)N)C(=O)O)NC(=O)[C@H](CCCCN)NC(=O)[C@@H]3CSSC[C@H](NC(=O)[C@H](CCC(=O)O)NC(=O)[C@H](C(C)C)NC(=O)[C@H](CO)NC(=O)[C@H](C)NC(=O)[C@H](CO)NC(=O)[C@@H](NC(=O)[C@H](CCCNC(=N)N)NC(=O)[C@H](CCSC)NC(=O)[C@@H](N)CC(=O)O)CSSC[C@H](NC(=O)[C@H](CCCCN)NC(=O)CNC(=O)[C@H](Cc4ccccc4)NC(=O)[C@H]([C@@H](C)CC)NC(=O)[C@H](CO)NC(=O)CNC1=O)C(=O)N[C@@H](CCSC)C(=O)N[C@@H](CC(N)=O)C(=O)N[C@@H](CCCCN)C(=O)N[C@@H](CCCCN)C(=O)N3)C(=O)N[C@@H](CCCCN)C(=O)N[C@@H](CCC(N)=O)C(=O)N[C@@H](CCCCN)C(=O)N2 [Compound 6] (H-DMRCSASVECKQKCLKAIGSIFGKCMNKKCKCYPR-OH; disulfide 4-25, 10-30, 14-32) | 0.34 |
| CC[C@H](C)[C@@H]1NC(=O)[C@H](C)NC(=O)[C@H](CCCCN)NC(=O)[C@H](CC(C)C)NC(=O)[C@@H]2CSSC[C@@H](C(=O)N[C@@H](Cc3ccc(O)cc3)C(=O)N3CCC[C@H]3C(=O)N[C@@H](CCCNC(=N)N)C(N)=O)NC(=O)[C@H](CCCCN)NC(=O)[C@@H]3CSSC[C@H](NC(=O)[C@H](CCC(=O)O)NC(=O)[C@H](C(C)C)NC(=O)[C@H](CO)NC(=O)[C@H](C)NC(=O)[C@H](CO)NC(=O)[C@@H](NC(=O)[C@H](CCCNC(=N)N)NC(=O)[C@H](CCSC)NC(=O)[C@H](CC(=O)O)NC(=O)[C@H](CCSC)NC(=O)[C@@H](N)CC(N)=O)CSSC[C@H](NC(=O)[C@H](CCCCN)NC(=O)CNC(=O)[C@H](Cc4ccccc4)NC(=O)[C@H]([C@@H](C)CC)NC(=O)[C@H](CO)NC(=O)CNC1=O)C(=O)N[C@@H](CCSC)C(=O)N[C@@H](CC(N)=O)C(=O)N[C@@H](CCCCN)C(=O)N[C@@H](CCCCN)C(=O)N3)C(=O)N[C@@H](CCCCN)C(=O)N[C@@H](CCC(N)=O)C(=O)N[C@@H](CCCCN)C(=O)N2 [Compound 7] (H-NMDMRCSASVECKQKCLKAIGSIFGKCMNKKCKCYPR-NH2; disulfide 6-27, 12-32, 16-34) | 0.12 |
| CC[C@H](C)[C@@H]1NC(=O)[C@H](C)NC(=O)[C@H](CCCCN)NC(=O)[C@H](CC(C)C)NC(=O)[C@@H]2CSSC[C@@H](C(=O)N[C@@H](Cc3ccc(O)cc3)C(=O)N3CCC[C@H]3C(=O)N[C@@H](CCCNC(=N)N)C(=O)O)NC(=O)[C@H](CCCCN)NC(=O)[C@@H]3CSSC[C@H](NC(=O)[C@H](CCC(=O)O)NC(=O)[C@H](C(C)C)NC(=O)[C@H](CO)NC(=O)[C@H](C)NC(=O)[C@H](CO)NC(=O)[C@@H](NC(=O)[C@H](CCCNC(=N)N)NC(=O)[C@@H](NC(=O)[C@H](CC(=O)O)NC(=O)[C@H](CCSC)NC(=O)[C@@H](N)CC(N)=O)C(C)C)CSSC[C@H](NC(=O)[C@H](CCCCN)NC(=O)CNC(=O)[C@H](Cc4ccccc4)NC(=O)[C@H]([C@@H](C)CC)NC(=O)[C@H](CO)NC(=O)CNC1=O)C(=O)N[C@@H](CCSC)C(=O)N[C@@H](CC(N)=O)C(=O)N[C@@H](CCCCN)C(=O)N[C@@H](CCCCN)C(=O)N3)C(=O)N[C@@H](CCCCN)C(=O)N[C@@H](CCC(N)=O)C(=O)N[C@@H](CCCCN)C(=O)N2 [Compound 9] (H-NMDVRCSASVECKQKCLKAIGSIFGKCMNKKCKCYPR-OH; disulfide 6-27, 12-32, 16-34) | 0.53 |
| CC[C@H](C)[C@@H]1NC(=O)[C@H](C)NC(=O)[C@H](CC(=O)O)NC(=O)[C@H](CCCCN)NC(=O)[C@@H]2CSSC[C@@H](C(=O)N[C@@H](Cc3ccc(O)cc3)C(=O)N3CCC[C@H]3C(=O)N[C@@H](CCCNC(=N)N)C(=O)O)NC(=O)[C@H](CCCCN)NC(=O)[C@@H]3CSSC[C@H](NC(=O)[C@H](CCC(=O)O)NC(=O)[C@H](C(C)C)NC(=O)[C@H](CO)NC(=O)[C@H](C)NC(=O)[C@H](CO)NC(=O)[C@@H](NC(=O)[C@H](CCCNC(=N)N)NC(=O)[C@H](CCSC)NC(=O)[C@H](CC(=O)O)NC(=O)[C@H](CCSC)NC(=O)[C@@H](N)CC(N)=O)CSSC[C@H](NC(=O)[C@H](CCCCN)NC(=O)CNC(=O)[C@H](Cc4ccccc4)NC(=O)[C@H]([C@@H](C)CC)NC(=O)[C@H](CO)NC(=O)CNC1=O)C(=O)N[C@@H](CCSC)C(=O)N[C@@H](CC(N)=O)C(=O)N[C@@H](CCCCN)C(=O)N[C@@H](CCCCN)C(=O)N3)C(=O)N[C@@H](CCCCN)C(=O)N[C@@H](CCC(N)=O)C(=O)N[C@@H](CCCCN)C(=O)N2 [Compound 10] (H-NMDMRCSASVECKQKCKDAIGSIFGKCMNKKCKCYPR-OH; disulfide 6-27, 12-32, 16-34) | 0.57 |
| CC[C@H](C)[C@@H]1NC(=O)[C@H](C)NC(=O)[C@H](CCCCN)NC(=O)[C@H](CC(C)C)NC(=O)[C@@H]2CSSC[C@@H](C(=O)N[C@@H](Cc3ccc(O)cc3)C(=O)N3CCC[C@H]3C(=O)N[C@@H](CCCNC(=N)N)C(=O)O)NC(=O)[C@H](CCCCN)NC(=O)[C@@H]3CSSC[C@H](NC(=O)[C@H](CCC(=O)O)NC(=O)[C@H](C(C)C)NC(=O)[C@H](CO)NC(=O)[C@H](C)NC(=O)[C@H](CO)NC(=O)[C@@H](NC(=O)[C@H](CCCNC(=N)N)NC(=O)[C@H](CCSC)NC(=O)[C@H](CC(=O)O)NC(=O)[C@H](CCSC)NC(=O)[C@H](CC(N)=O)NC(=O)CNC(=O)CN)CSSC[C@H](NC(=O)[C@H](CCCCN)NC(=O)CNC(=O)[C@H](Cc4ccccc4)NC(=O)[C@H]([C@@H](C)CC)NC(=O)[C@H](CO)NC(=O)CNC1=O)C(=O)N[C@@H](CCSC)C(=O)N[C@@H](CC(N)=O)C(=O)N[C@@H](CCCCN)C(=O)N[C@@H](CCCCN)C(=O)N3)C(=O)N[C@@H](CCCCN)C(=O)N[C@@H](CCC(N)=O)C(=O)N[C@@H](CCCCN)C(=O)N2 [Compound 11] (H-GGNMDMRCSASVECKQKCLKAIGSIFGKCMNKKCKCYPR-OH; disulfide 8-29, 14-34, 18-36) | 0.3 |
| CC[C@H](C)[C@@H]1NC(=O)[C@H](C)NC(=O)[C@H](CCCCN)NC(=O)[C@H](CC(C)C)NC(=O)[C@@H]2CSSC[C@@H](C(=O)N[C@@H](Cc3ccc(O)cc3)C(=O)N3CCC[C@H]3C(=O)N[C@@H](CCCNC(=N)N)C(=O)O)NC(=O)[C@H](CCCCN)NC(=O)[C@@H]3CSSC[C@H](NC(=O)[C@H](CCC(=O)O)NC(=O)[C@H](C(C)C)NC(=O)[C@H](CO)NC(=O)[C@H](C)NC(=O)[C@H](CO)NC(=O)[C@@H](NC(=O)[C@H](CCCNC(=N)N)NC(=O)[C@H](CCSC)NC(=O)[C@H](CC(=O)O)NC(=O)[C@H](CCSC)NC(=O)[C@H](CC(N)=O)NC(=O)CNC(=O)[C@@H](N)CO)CSSC[C@H](NC(=O)[C@H](CCCCN)NC(=O)CNC(=O)[C@H](Cc4ccccc4)NC(=O)[C@H]([C@@H](C)CC)NC(=O)[C@H](CO)NC(=O)CNC1=O)C(=O)N[C@@H](CCSC)C(=O)N[C@@H](CC(N)=O)C(=O)N[C@@H](CCCCN)C(=O)N[C@@H](CCCCN)C(=O)N3)C(=O)N[C@@H](CCCCN)C(=O)N[C@@H](CCC(N)=O)C(=O)N[C@@H](CCCCN)C(=O)N2 [Compound 13] (H-SGNMDMRCSASVECKQKCLKAIGSIFGKCMNKKCKCYPR-OH; disulfide 8-29, 14-34, 18-36) | 0.26 |
| CCCC[C@H](NC(=O)[C@@H](N)CC(N)=O)C(=O)N[C@@H](CC(=O)O)C(=O)N[C@@H](CCSC)C(=O)N[C@@H](CCCNC(=N)N)C(=O)N[C@H]1CSSC[C@@H]2NC(=O)[C@H](CCCCN)NC(=O)CNC(=O)[C@H](Cc3ccccc3)NC(=O)[C@H]([C@@H](C)CC)NC(=O)[C@H](CO)NC(=O)CNC(=O)[C@H]([C@@H](C)CC)NC(=O)[C@H](C)NC(=O)[C@H](CCCCN)NC(=O)[C@H](CC(C)C)NC(=O)[C@@H]3CSSC[C@@H](C(=O)N[C@@H](Cc4ccc(O)cc4)C(=O)N4CCC[C@H]4C(=O)N[C@@H](CCCNC(=N)N)C(N)=O)NC(=O)[C@H](CCCCN)NC(=O)[C@H](CSSC[C@H](NC(=O)[C@H](CCC(=O)O)NC(=O)[C@H](C(C)C)NC(=O)[C@H](CO)NC(=O)[C@H](C)NC(=O)[C@H](CO)NC1=O)C(=O)N[C@@H](CCCCN)C(=O)N[C@@H](CCC(N)=O)C(=O)N[C@@H](CCCCN)C(=O)N3)NC(=O)[C@H](CCCCN)NC(=O)[C@H](CCCCN)NC(=O)[C@H](CC(N)=O)NC(=O)[C@H](CCSC)NC2=O [Compound 14] (H-N[Nle]DMRCSASVECKQKCLKAIGSIFGKCMNKKCKCYPR-NH2; disulfide 6-27, 12-32, 16-34) | 0.16 |
